In PMC8283790, “Inhibitory Effect of Puroindoline Peptides on Campylobacter jejuni Growth and Biofilm Formation” (Frontiers in Microbiology, 2021):
Converted amounts (≈) assume the structure as drawn. Like-named read-outs stand apart in the source and are kept apart here. Where a SMILES comes first, the peptide text is derived from it.

Columns and labels:
[1] = tested on: MRSA; format: cell-based, Staphylococcus aureus; conditions: CLSI broth microdilution, MH broth, 37°C aerobic, 24 h, OD595
Procedure: (§1) C. jejuni clinical strains 81-176 and F38011 were cultured every 24 to 48 h on Mueller-Hinton (MH) agar containing 5% citrated bovine blood (MH-blood agar) or in MH broth in a shaking orbital incubator with microaerobic conditions (5% O2, 10% CO2, 85% N2) at 37°C. The generic isolates of E. coli O157:H7, L. monocytogenes, and Salmonella enterica serovar Typhimurium (S. Typhimurium) were cultured on LB agar plates in an aerobic chamber at 37°C, and methicillin-resistant S. aureus (MRSA) were cultured on an MH-blood agar plate in an aerobic chamber at 37°C.
(§2) Two-fold serial dilutions were made. The bacterial cultures were grown overnight in MH broth under the appropriate conditions, pelleted by centrifugation, and suspended in MH broth at 5 × 10^6 CFU/mL. Ten microliters of bacterial suspension (∼5 × 10^4 bacteria) was used to inoculate every well except the media control wells in 96-well microtiter plate. The plate was incubated in an orbital shaker at 37°C in a microaerobic condition for 48 h for C. jejuni strains or in aerobic conditions for 24 h for other bacteria. After incubation, the optical density was determined using a 96-well plate reader (BioTek Instruments Inc., Winooski, VT, United States) at 595 nm (OD595). […] The dose-response curves were created by log-transforming the OD595 readings. […]

[2] = tested on: L. monocytogenes; format: cell-based, Listeria monocytogenes; conditions: CLSI broth microdilution, MH broth, 37°C aerobic, 24 h, OD595
Procedure: as §1, §2

[3] = tested on: C. jejuni strain F38011; experiment: microbe, parasite or virus in culture; format: cell-based, Campylobacter jejuni; conditions: for MIC: CLSI broth microdilution, MH broth, ~5 × 10^4 bacteria/well, 37°C microaerobic
[4] = tested on: C. jejuni strain 81-176; conditions: C. jejuni 81-176, 48 h; for MIC: CLSI broth microdilution, MH broth, ~5 × 10^4 bacteria/well, 37°C microaerobic, OD595
[5] = tested on: sheep red blood cells (SRBCs); experiment: Hemolysis assay; format: cell-based; conditions: ~10^8 cells/mL, 60 min, 37°C, absorbance 540 nm; 100% = 1% Triton X-100
Procedure: The potential toxicity of the peptides was determined using a hemolysis assay. Briefly, SRBCs (Hardy Diagnostics, Santa Monica, CA, United States) were washed three times with 1× PBS. Aliquots containing approximately 10^8 cells/mL were incubated with different concentrations of the peptides for 60 min at 37°C in a 96-well tray. The plates were then centrifuged, and the absorbance of each supernatant was measured at 540 nm. Zero hemolysis (blank) and 100% hemolysis were determined in phosphate buffer and 1% Triton X-100, respectively.

[6] = tested on: E. coli O157:H7; format: cell-based, Escherichia coli; conditions: CLSI broth microdilution, MH broth, 37°C aerobic, 24 h, OD595
Procedure: as §1, §2

[7] = tested on: S. Typhimurium; format: cell-based, Salmonella enterica serovar Typhimurium; conditions: CLSI broth microdilution, MH broth, 37°C aerobic, 24 h, OD595
Procedure: as §1, §2

[8] = tested on: INT 407 cells; experiment: MTT cell viability assay; format: cell-based, human; conditions: for Concentration reducing cell viability (MTT, OD570): INT 407 cells, 24 h
Procedure: (§3) The toxicity of the puroindoline peptides was assessed using INT 407 epithelial cells (ATCC CCL-6) and SRBCs, as described below. The INT 407 cells (a derivative of HeLa cells) were cultured in Minimal Essential Medium (MEM) (Gibco, Grand Island, NY, United States) supplemented with 10% fetal bovine serum (FBS) and 1 mM sodium pyruvate at 37°C in humidified condition (5% CO2).
The viability of INT 407 cells was assessed by MTT assay according to the manufacturer’s recommendations (Roche Diagnostics, Mannheim, Germany). Briefly, INT 407 cells were seeded into a 96-well plate at a density of 2.5 × 10^4 cells/well in 200 μL of growth media (MEM supplemented by 10% FBS) and incubated for 24 h at 37°C under humidified conditions. Cells were rinsed twice with MEM without FBS, and different concentrations of peptides were added into the well. Triton X-100 was added as a positive control and growth medium only was added as a negative control. After treatment, the cells were incubated for different time points (3, 6, or 24 h) at 37°C in a humidified condition. At the end of each experiment, 100 μL of culture medium was removed into a new 96-well plate, and 25 μL of MTT stock solution was added into each well. The plates were incubated for 4 h at 37°C. Then, 100 μL of the solubilizing solution was added to each well, and the plate was incubated overnight at 37°C. After cooling, the plates were read at 570 nm (OD570) on a BioTek 96-well plate reader.

[9] = tested on: red blood cells; conditions: ref Capparelli et al. (2007); cited from earlier work
Description: (§4) The cytotoxicity and hemolytic activity of PinA has been addressed in this study using human epithelial INT 407 cells and SRBCs. INT 407 cells were chosen for this study as these cells grow rapidly and easy to maintain in culture media. INT 407 cells have been used extensively in C. jejuni research for several decades ([Negretti et al., 2019]). […] The first report on the cytotoxicity of puroindolines was from [Jing et al. (2003)], where th ...

[10] = tested on: blood; conditions: blood hemolysis assay; ref Jing et al. (2003); cited from earlier work
Description: as §4

[11] = Solubility of the synthetic peptides; format: physicochemical; conditions: DMSO and water
[12] = tested on: INT 407 cells; experiment: Lactate dehydrogenase (LDH) cytotoxicity assay; format: cell-based, human
Procedure: as §3
The cytotoxicity of puroindoline peptides on INT 407 cells was monitored using the lactate dehydrogenase (LDH) activity assay kit (Millipore Sigma, Danvers, MA, United States) following the manufacturer’s guidelines. LDH is released from damaged cells into the medium. Briefly, INT 407 cells were seeded into a 96 well plate at a density of 2.5 × 10^4 cells/well in 200 μL growth media (MEM supplemented by 10% FBS) and incubated for 24 h at 37°C in humidified (5% CO2) conditions. The next day, cells were rinsed twice with MEM without FBS, and different concentrations of peptides were added. Cells were incubated for 3 h, 6 h or 24 h at 37°C. As a positive control, 0.1% Triton X-100 was used. Media only was used as a negative control. In the presence of Triton X-100, cells release maximum LDH. After the appropriate incubation point, the tissue culture plate was centrifuged at 2000 rpm for 5 min. […] Absorbance was recorded at 450 nm (OD450) on a BioTek 96-well plate reader.

[13] = tested on: C. jejuni 81-176 biofilm; experiment: Biofilm formation, crystal violet staining; format: cell-based, Campylobacter jejuni; conditions: inoculum OD540 0.1, 72 h, 37°C microaerobic, no agitation
[14] = tested on: C. jejuni strain 81-176; experiment: microbe, parasite or virus in culture

For `CSCC[C@H](NC(=O)[C@@H](N)[C@@H](C)O)C(=O)N[C@@H](CCCCN)C(=O)N[C@@H](CC(=O)O)C(=O)N[C@@H](Cc1ccccc1)C(=O)N1CCC[C@H]1C(=O)N[C@H](C(=O)N[C@H](C(=O)N[C@@H](Cc1c[nH]c2ccccc12)C(=O)N[C@@H](CCCNC(=N)N)C(=O)N[C@@H](Cc1c[nH]c2ccccc12)C(=O)NCC(=O)N[C@@H](CCCCN)C(=O)N[C@@H](Cc1c[nH]c2ccccc12)C(=O)NCC(=O)N[C@@H](CCCCN)C(=O)NCC(=O)NCC(=O)O)[C@@H](C)O)C(C)C` [PinA mutant] (H-TMKDFPVTWRWGKWGKGG-OH), the MIC [1] was over 512 µg/mL, the MIC [2] was over 512 µg/mL and the MIC ([3]; 48 h, OD595) was over 512 µg/mL. The MIC [4] was over 512 µg/mL, the “Concentration showing hemolysis of SRBCs” value [5] was at least 256 µg/mL and the MIC [6] was over 512 µg/mL. The MIC [7] was over 512 µg/mL.

With Triton X-100 [reference compound] the “Cell viability (MTT, OD570), in words” value [8] was “very low absorbance at OD570”.

For `CSCC[C@H](NC(=O)[C@@H](N)[C@@H](C)O)C(=O)N[C@@H](CCCCN)C(=O)N[C@@H](CC(=O)O)C(=O)N[C@@H](Cc1ccccc1)C(=O)N1CCC[C@H]1C(=O)N[C@H](C(=O)N[C@H](C(=O)N[C@@H](Cc1c[nH]c2ccccc12)C(=O)N1CCC[C@H]1C(=O)N[C@H](C(=O)N[C@@H](CCCCN)C(=O)N[C@@H](Cc1c[nH]c2ccccc12)C(=O)N[C@@H](Cc1c[nH]c2ccccc12)C(=O)N[C@@H](CCCCN)C(=O)NCC(=O)NCC(=O)O)[C@@H](C)O)[C@@H](C)O)C(C)C` [PinB] (H-TMKDFPVTWPTKWWKGG-OH), the “Concentration up to which no hemolytic activity was displayed” value [9] is listed as 50 µg/mL, the “Concentration up to which no hemolytic activity was identified” value [10] is listed as 1000 µg/mL and the “Solubility (in words)” value [11] is listed as “soluble in DMSO, an organic solvent, but not in water”. The “Concentration showing hemolysis of SRBCs” value [5] was at least 256 µg/mL, the “Concentration reducing cell viability (MTT, OD570)” value [8] was over 512 µg/mL and the “Concentration showing cytotoxicity (LDH release)” value ([12]; INT 407 cells, any time point (3, 6, 24 h)) was over 512 µg/mL.

Molecule `CSCC[C@H](NC(=O)[C@@H](N)[C@@H](C)O)C(=O)N[C@@H](CCCCN)C(=O)N[C@@H](CC(=O)O)C(=O)N[C@@H](Cc1ccccc1)C(=O)N1CCC[C@H]1C(=O)N[C@H](C(=O)N[C@H](C(=O)N[C@@H](Cc1c[nH]c2ccccc12)C(=O)N1CCC[C@H]1C(=O)N[C@H](C(=O)NCC(=O)N[C@@H](Cc1c[nH]c2ccccc12)C(=O)N[C@@H](Cc1c[nH]c2ccccc12)C(=O)NCC(=O)NCC(=O)NCC(=O)O)[C@@H](C)O)[C@@H](C)O)C(C)C` [PinB mutant] (H-TMKDFPVTWPTGWWGGG-OH) has an MIC [1] of over 512 µg/mL, an MIC [2] of over 512 µg/mL and an MIC ([3]; 48 h, OD595) of over 512 µg/mL. The MIC [4] was over 512 µg/mL, the “Concentration showing hemolysis of SRBCs” value [5] was at least 256 µg/mL and the MIC [6] was over 512 µg/mL. The MIC [7] was over 512 µg/mL.

For `CC[C@H]1OC(=O)[C@H](C)[C@@H](O[C@H]2C[C@@](C)(OC)[C@@H](O)[C@H](C)O2)[C@H](C)[C@@H](O[C@@H]2O[C@H](C)C[C@H](N(C)C)[C@H]2O)[C@](C)(O)C[C@@H](C)C(=O)[C@H](C)[C@@H](O)[C@]1(C)O` [erythromycin], the “Concentration inhibiting biofilm formation” value [13] was at least 0.25 µg/mL, the MIC ([3]; Campylobacter jejuni, 48 h, OD595, read-out: MIC) was 0.188 µg/mL (≈ 0.255 µM) and the IC50 ([3]; Campylobacter jejuni, read-out: IC50 (concentration at which 50% of bacteria is inhibited), broth microdilution, 48 h, ten concentration points, min. three biological replicates) was 0.0405 µg/mL (≈ 0.0552 µM). The IC90 ([3]; Campylobacter jejuni, read-out: IC90 (90% of maximal inhibitory concentration), from slope of concentration-effect curve, 48 h) was 0.0657 µg/mL (≈ 0.0895 µM), the MBC ([3]; Campylobacter jejuni, wells spotted on MH agar, 24–48 h, no growth (>99.9% reduction)) was 0.25 µg/mL (≈ 0.341 µM) and the “IC10 (10% of maximal inhibitory concentration)” value ([3]; from slope of concentration-effect curve, 48 h) was 0.0249 µg/mL. The “IC10 (10% of maximal inhibitory concentration)” value ([4]; from slope of concentration-effect curve) was 0.0254 µg/mL, the MBC ([14]; Campylobacter jejuni, 81176) was 0.125 µg/mL (≈ 0.17 µM) and the MIC ([14]; Campylobacter jejuni, 81176, 48 h) was 0.125 µg/mL (≈ 0.17 µM). For the same molecule, the IC50 ([14]; Campylobacter jejuni, 81176, 48 h, read-out: IC50 (concentration at which 50% of bacteria is inhibited)) was 0.0415 µg/mL (≈ 0.0565 µM) and the IC90 ([14]; Campylobacter jejuni, 81176, 48 h, read-out: IC90 (90% of maximal inhibitory concentration)) was 0.0677 µg/mL (≈ 0.0922 µM).

In the case of `CSCC[C@H](NC(=O)[C@@H](N)[C@@H](C)O)C(=O)N[C@@H](CCCCN)C(=O)N[C@@H](CC(=O)O)C(=O)N[C@@H](Cc1ccccc1)C(=O)N1CCC[C@H]1C(=O)N[C@H](C(=O)N[C@H](C(=O)N[C@@H](Cc1c[nH]c2ccccc12)C(=O)N[C@@H](CCCNC(=N)N)C(=O)N[C@@H](Cc1c[nH]c2ccccc12)C(=O)N[C@@H](Cc1c[nH]c2ccccc12)C(=O)N[C@@H](CCCCN)C(=O)N[C@@H](Cc1c[nH]c2ccccc12)C(=O)N[C@@H](Cc1c[nH]c2ccccc12)C(=O)N[C@@H](CCCCN)C(=O)NCC(=O)NCC(=O)O)[C@@H](C)O)C(C)C` [PinA] (H-TMKDFPVTWRWWKWWKGG-OH), the “Concentration up to which no hemolytic activity was displayed” value [9] is listed as 150 µg/mL, the “Concentration up to which no hemolytic activity was identified” value [10] is listed as 1000 µg/mL and the “Concentration showing hemolysis of SRBCs” value [5] is listed as at least 256 µg/mL. The “Concentration reducing cell viability (MTT, OD570)” value [8] was 256 µg/mL and the “Cytotoxicity (LDH release), in words” value ([12]; INT 407 cells, 3, 6 and 24 h, MEM without FBS, Triton X-100 at 0.1%) was “cytotoxic to INT 407 cells at higher concentrations”.
